Results from ChEMBL document CHEMBL1128205, “Design and synthesis of conformationally constrained analogues of 4-(3-butoxy-4-methoxybenzyl)imidazolidin-2-one (Ro 20-1724) as potent inhibitors of cAMP-specific phosphodiesterase” (J Med Chem, 1995).

Tests used:
[1] = biological target: 3',5'-cyclic-AMP phosphodiesterase 4B (Homo sapiens, UniProt Q07343); assay: Inhibition of human Phosphodiesterase 4B
Homo sapiens = species on record: Homo sapiens; assay: Inhibition of LPS-induced TNF-alpha secretion from purified human peripheral blood monocytes; format: functional

3',5'-cyclic-AMP phosphodiesterase 4B, sequence (Q07343 whole entry): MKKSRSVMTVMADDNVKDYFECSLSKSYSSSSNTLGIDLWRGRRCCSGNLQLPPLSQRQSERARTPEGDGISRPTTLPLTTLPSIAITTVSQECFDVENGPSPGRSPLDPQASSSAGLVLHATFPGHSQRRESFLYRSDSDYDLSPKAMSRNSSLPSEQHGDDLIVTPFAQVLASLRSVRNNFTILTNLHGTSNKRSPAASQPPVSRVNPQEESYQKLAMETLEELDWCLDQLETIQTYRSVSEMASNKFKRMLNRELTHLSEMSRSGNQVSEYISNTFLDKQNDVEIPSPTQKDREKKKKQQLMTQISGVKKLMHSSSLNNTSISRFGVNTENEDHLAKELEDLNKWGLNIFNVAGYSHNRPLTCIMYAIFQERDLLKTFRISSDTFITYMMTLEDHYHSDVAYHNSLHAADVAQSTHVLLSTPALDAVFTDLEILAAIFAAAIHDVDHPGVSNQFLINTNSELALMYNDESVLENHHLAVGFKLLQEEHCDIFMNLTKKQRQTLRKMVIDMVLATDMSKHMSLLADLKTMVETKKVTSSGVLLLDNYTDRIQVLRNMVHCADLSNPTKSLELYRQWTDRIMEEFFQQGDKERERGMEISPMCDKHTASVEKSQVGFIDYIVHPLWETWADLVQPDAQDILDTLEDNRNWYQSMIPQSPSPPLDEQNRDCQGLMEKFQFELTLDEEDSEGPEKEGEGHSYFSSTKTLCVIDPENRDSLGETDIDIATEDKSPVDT

SMILES	Ki [1] [nM]	IC50 (Homo sapiens) [nM]
COc1ccc(CC2CNC(=O)N2)cc1OC1CCCC1 (stereo not given)	447	–
COc1ccc([C@H]2CCN3C(=O)NC[C@@H]23)cc1OC1CCCC1	583	–
COc1ccc([C@H]2CCN3C(=O)NC[C@H]23)cc1OC1CCCC1	27	290
CCCCOc1cc(CC2CNC(=O)N2)ccc1OC (stereo not given) [RO-201724]	–	1800

Results, then the compound that gave them:

Ki [1] [nM]	IC50 (Homo sapiens) [nM]	SMILES
282	–	COc1ccc([C@H]2CCN3C(=O)OC[C@@H]23)cc1OC1CCCC1
63	–	COc1ccc([C@H]2CCN3C(=O)CC[C@H]23)cc1OC1CCCC1
70	–	COc1ccc([C@H]2CCN3C(=O)OC[C@H]23)cc1OC1CCCC1
–	320	COc1ccc(C2CNC(=O)C2)cc1OC1CCCC1 (stereo not given) [ROLIPRAM]
338	–	COc1ccc([C@H]2CCN3C(=O)CC[C@@H]23)cc1OC1CCCC1
